Here are results for 16 compounds from US9073855B2, “BCL-2 selective apoptosis-inducing agents for the treatment of cancer and immune diseases” (AbbVie Inc., priority 2008, dated 2015).

In general, Ki refers to the dissociation constant of the complex between target and ligand, obtained from inhibition or displacement. Read a low Ki as higher affinity. One may read the EC50 as the concentration needed to bring the measured effect to its halfway point.

One assay concerns the target GST-Bcl-2 (Homo sapiens, UniProt P10415). Put plainly: TR-FRET binding assay, GST-Bcl-2 with F-Bak peptide probe. The conditions noted are these: TR-FRET Binding Affinity, GST-Bcl-2, F-Bak peptide probe. The method, boiled down:
(§1)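 Ki was derived with Wang's equation for competitive binding of two ligands. The read-out was time-resolved fluorescence after a 3 h room-temperature incubation, using a Tb-labelled antibody donor and the F-Bak peptide acceptor (excitation 340/35 nm). Test compounds entered as DMSO serial dilutions starting at 50 μM, which was the 2× concentration.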
A general note: TR-FRET usually uses a lanthanide donor and a delayed reading to cut background.

For a further assay, the target named is GST-Bcl-XL (Homo sapiens, UniProt Q07817). Description: TR-FRET binding assay, GST-Bcl-XL with F-Bak peptide probe. Conditions: TR-FRET Binding Affinity, GST-Bcl-XL, F-Bak peptide probe. An outline of the steps:
as §1

The test system of another assay is FL5.12/Bcl-2 cells. Put plainly: FL5.12/Bcl-2 cell viability assay under IL-3 withdrawal (CellTitre Glo). Type of assay: cell-based, murine. Conditions: Mus musculus, IL-3 withdrawn 48 hrs, then 24 hrs with compound. An outline of the steps:
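Viability measured by CellTitre Glo after FL5.12/Bcl-2 murine cells, starved of IL-3 for 48 hrs, were treated with compounds for another 24 hrs. Killing reflects inhibition of Bcl-2 sequestration of Bim and Puma.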

Sequence of GST-Bcl-XL (Q07817 whole entry): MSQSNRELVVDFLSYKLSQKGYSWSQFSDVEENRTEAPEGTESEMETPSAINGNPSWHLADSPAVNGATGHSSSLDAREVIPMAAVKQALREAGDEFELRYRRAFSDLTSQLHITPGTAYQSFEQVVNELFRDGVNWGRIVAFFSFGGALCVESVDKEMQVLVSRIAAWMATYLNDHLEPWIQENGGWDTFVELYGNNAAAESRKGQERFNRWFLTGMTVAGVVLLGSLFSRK
Sequence of GST-Bcl-2 (P10415 whole entry): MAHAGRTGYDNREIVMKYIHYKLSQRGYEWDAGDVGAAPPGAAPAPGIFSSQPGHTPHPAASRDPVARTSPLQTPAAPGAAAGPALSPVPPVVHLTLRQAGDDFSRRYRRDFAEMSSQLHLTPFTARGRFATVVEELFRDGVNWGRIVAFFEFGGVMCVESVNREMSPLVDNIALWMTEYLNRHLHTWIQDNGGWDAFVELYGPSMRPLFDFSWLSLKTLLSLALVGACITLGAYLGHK

On to `CC1(C)CCC(CN2CCN(c3ccc(C(=O)NS(=O)(=O)c4ccc(CCC5OCCO5)c([N+](=O)[O-])c4)c(Oc4ccc5[nH]ccc5c4)c3)CC2)=C(c2ccc(Cl)cc2)C1` [Example 278, 4-(4-{[2-(4-chlorophenyl)-4,4-dimethylcyclohex-1-en-1-yl]methyl}piperazin-1-yl)-N-({4-[2-(1,3-dioxolan-2-yl)ethyl]-3-nitrophenyl}sulfonyl)-2-(1H-indol-5-yloxy)benzamide], for which the values for the Ki on GST-Bcl-2 and at GST-Bcl-XL were 0.71 nM and more than 660 nM, respectively. For the same compound, the concentration giving a half-maximal response (EC50) in the assay with FL5.12/Bcl-2 cells is 153 nM.

As to `CC1(C)CCC(CN2CCN(c3ccc(C(=O)NS(=O)(=O)c4ccc(OCC5CCOCC5)c([N+](=O)[O-])c4)c(Oc4ccc5[nH]ccc5c4)c3)CC2)=C(c2ccc(Cl)cc2)C1` [Example 279, 4-(4-{[2-(4-chlorophenyl)-4,4-dimethylcyclohex-1-en-1-yl]methyl}piperazin-1-yl)-2-(1H-indol-5-yloxy)-N-{[3-nitro-4-(tetrahydro-2H-pyran-4-ylmethoxy)phenyl]sulfonyl}benzamide], the Ki was 0.095 nM on GST-Bcl-2 and more than 660 nM at GST-Bcl-XL. The concentration for a half-maximal effect (EC50) in the assay with FL5.12/Bcl-2 cells was found to be 16.2 nM.

As to `CC1(C)CCC(CN2CCN(c3ccc(C(=O)NS(=O)(=O)c4ccc(NCCN5CCNC(=O)C5)c([N+](=O)[O-])c4)c(Oc4cccc5[nH]ccc45)c3)CC2)=C(c2ccc(Cl)cc2)C1` [Example 280, 4-(4-{[2-(4-chlorophenyl)-4,4-dimethylcyclohex-1-en-1-yl]methyl}piperazin-1-yl)-2-(1H-indol-4-yloxy)-N-[(3-nitro-4-{[2-(3-oxopiperazin-1-yl)ethyl]amino}phenyl)sulfonyl]benzamide], the inhibition constant (Ki) on GST-Bcl-2 stood at 0.178 nM; at GST-Bcl-XL it was 195 nM. The half-maximal effective concentration (EC50) in the assay on FL5.12/Bcl-2 cells stood at 247 nM.

For the compound `CN1CC(Nc2ccc(S(=O)(=O)NC(=O)c3ccc(N4CCN(CC5=C(c6ccc(Cl)cc6)CC(C)(C)CC5)CC4)cc3Oc3ccc4[nH]ccc4c3)cc2[N+](=O)[O-])CC1=O` (stereo not drawn) [Example 281, 4-(4-{[2-(4-chlorophenyl)-4,4-dimethylcyclohex-1-en-1-yl]methyl}piperazin-1-yl)-2-(1H-indol-5-yloxy)-N-({4-[(1-methyl-5-oxopyrrolidin-3-yl)amino]-3-nitrophenyl}sulfonyl)benzamide], the values for the Ki on GST-Bcl-2 and at GST-Bcl-XL were 0.076 nM and 119 nM, respectively. Also, the EC50 with FL5.12/Bcl-2 cells amounted to 60.2 nM.

For `CN1CC(Nc2ccc(S(=O)(=O)NC(=O)c3ccc(N4CCN(CC5=C(c6ccc(Cl)cc6)CC(C)(C)CC5)CC4)cc3Oc3ccc4[nH]ccc4c3)cc2[N+](=O)[O-])CCC1=O` (stereo not drawn) [Example 282, 4-(4-{[2-(4-chlorophenyl)-4,4-dimethylcyclohex-1-en-1-yl]methyl}piperazin-1-yl)-2-(1H-indol-5-yloxy)-N-({4-[(1-methyl-6-oxopiperidin-3-yl)amino]-3-nitrophenyl}sulfonyl)benzamide], the figures for the Ki on GST-Bcl-2 and at GST-Bcl-XL were 0.164 nM and 562 nM, respectively. Moreover, the EC50 with FL5.12/Bcl-2 cells was found to be 92.2 nM.

As for `CC1(C)CCC(CN2CCN(c3ccc(C(=O)NS(=O)(=O)c4ccc(NN5CCCCC5)c([N+](=O)[O-])c4)c(Oc4cccc5[nH]ccc45)c3)CC2)=C(c2ccc(Cl)cc2)C1` [Example 283, 4-(4-{[2-(4-chlorophenyl)-4,4-dimethylcyclohex-1-en-1-yl]methyl}piperazin-1-yl)-2-(1H-indol-4-yloxy)-N-{[3-nitro-4-(piperidin-1-ylamino)phenyl]sulfonyl}benzamide], the inhibitory constant (Ki) was 47.5 nM at GST-Bcl-2 and more than 660 nM at GST-Bcl-XL. The concentration giving a half-maximal response (EC50) with FL5.12/Bcl-2 cells is more than 500 nM.

`CC1(C)CCC(CN2CCN(c3ccc(C(=O)NS(=O)(=O)c4ccc(NN5CCCCC5)c([N+](=O)[O-])c4)c(Oc4ccc5[nH]ccc5c4)c3)CC2)=C(c2ccc(Cl)cc2)C1` [Example 284, 4-(4-{[2-(4-chlorophenyl)-4,4-dimethylcyclohex-1-en-1-yl]methyl}piperazin-1-yl)-2-(1H-indol-5-yloxy)-N-{[3-nitro-4-(piperidin-1-ylamino)phenyl]sulfonyl}benzamide]: the Ki was 1.55 nM on GST-Bcl-2 and more than 660 nM on GST-Bcl-XL. Besides, the EC50 in the assay with FL5.12/Bcl-2 cells was more than 500 nM.

Take `Cn1ncc(-c2ccc(Cl)cc2)c1CN1CCN(c2ccc(C(=O)NS(=O)(=O)c3ccc(NCC4CCOCC4)c([N+](=O)[O-])c3)c(Oc3ccc4[nH]ccc4c3)c2)CC1` [Example 285, 4-(4-{[4-(4-chlorophenyl)-1-methyl-1H-pyrazol-5-yl]methyl}piperazin-1-yl)-2-(1H-indol-5-yloxy)-N-({3-nitro-4-[(tetrahydro-2H-pyran-4-ylmethyl)amino]phenyl}sulfonyl)benzamide]: the figures for the Ki at GST-Bcl-2 and on GST-Bcl-XL were 6.99 nM and more than 660 nM, respectively. In the assay on FL5.12/Bcl-2 cells, the concentration giving a half-maximal response (EC50) was more than 500 nM.

Take `CC1(C)CCC(CN2CCN(c3ccc(C(=O)NS(=O)(=O)c4ccc(OCC5(C)COC5)c([N+](=O)[O-])c4)c(Oc4ccc5[nH]ccc5c4)c3)CC2)=C(c2ccc(Cl)cc2)C1` [Example 286, 4-(4-{[2-(4-chlorophenyl)-4,4-dimethylcyclohex-1-en-1-yl]methyl}piperazin-1-yl)-2-(1H-indol-5-yloxy)-N-({4-[(3-methyloxetan-3-yl)methoxy]-3-nitrophenyl}sulfonyl)benzamide]: the Ki at GST-Bcl-2 is 0.567 nM; on GST-Bcl-XL it was more than 660 nM. Besides, in the assay on FL5.12/Bcl-2 cells, the EC50 is 279 nM.

On to `CC1(C)CCC(CN2CCN(c3ccc(C(=O)NS(=O)(=O)c4ccc(NCc5cncs5)c([N+](=O)[O-])c4)c(Oc4ccc5[nH]ccc5c4)c3)CC2)=C(c2ccc(Cl)cc2)C1` [Example 288, 4-(4-{[2-(4-chlorophenyl)-4,4-dimethylcyclohex-1-en-1-yl]methyl}piperazin-1-yl)-2-(1H-indol-5-yloxy)-N-({3-nitro-4-[(1,3-thiazol-5-ylmethyl)amino]phenyl}sulfonyl)benzamide], for which the inhibition constant Ki was 0.177 nM at GST-Bcl-2 and more than 660 nM at GST-Bcl-XL. The concentration for a half-maximal effect (EC50) in the assay on FL5.12/Bcl-2 cells stood at 64.3 nM.

For the compound `CC1(C)CCC(CN2CCN(c3ccc(C(=O)NS(=O)(=O)c4ccc(OCC5CCOCC5)c([N+](=O)[O-])c4)c(Oc4cccc5[nH]ccc45)c3)CC2)=C(c2ccc(Cl)cc2)C1` [Example 289, 4-(4-{[2-(4-chlorophenyl)-4,4-dimethylcyclohex-1-en-1-yl]methyl}piperazin-1-yl)-2-(1H-indol-4-yloxy)-N-{[3-nitro-4-(tetrahydro-2H-pyran-4-ylmethoxy)phenyl]sulfonyl}benzamide], the inhibitory constant (Ki) was 0.112 nM on GST-Bcl-2 and more than 660 nM on GST-Bcl-XL. The half-maximal effective concentration (EC50) with FL5.12/Bcl-2 cells was determined as 27.4 nM.

Turning to `CC1(C)CCC(c2ccc(Cl)cc2)=C(CN2CCN(c3ccc(C(=O)NS(=O)(=O)c4ccc(NCC5CCOCC5)c([N+](=O)[O-])c4)c(Oc4ccc5[nH]ccc5c4)c3)CC2)C1` [Example 290, 4-(4-{[2-(4-chlorophenyl)-5,5-dimethylcyclohex-1-en-1-yl]methyl}piperazin-1-yl)-2-(1H-indol-5-yloxy)-N-({3-nitro-4-[(tetrahydro-2H-pyran-4-ylmethyl)amino]phenyl}sulfonyl)benzamide], the Ki on GST-Bcl-2 was 0.365 nM; on GST-Bcl-XL it was more than 660 nM. Moreover, in the assay on FL5.12/Bcl-2 cells, the EC50 turned out to be 44.7 nM.

On to `CC1(C)CCC(CN2CCN(c3ccc(C(=O)NS(=O)(=O)c4ccc(NCCC5CCOCC5)c([N+](=O)[O-])c4)c(Oc4ccc5[nH]ccc5c4)c3)CC2)=C(c2ccc(Cl)cc2)C1` [Example 291, 4-(4-{[2-(4-chlorophenyl)-4,4-dimethylcyclohex-1-en-1-yl]methyl}piperazin-1-yl)-2-(1H-indol-5-yloxy)-N-({3-nitro-4-[(2-tetrahydro-2H-pyran-4-ylethyl)amino]phenyl}sulfonyl)benzamide], for which the inhibition constant (Ki) on GST-Bcl-2 is 0.56 nM; at GST-Bcl-XL, more than 660 nM. In addition, in the assay on FL5.12/Bcl-2 cells, the EC50 was 58 nM.

For the compound `CC1(C)CCC(CN2CCN(c3ccc(C(=O)NS(=O)(=O)c4ccc(NCCOC(F)(F)F)c([N+](=O)[O-])c4)c(Oc4cccc5[nH]ccc45)c3)CC2)=C(c2ccc(Cl)cc2)C1` [Example 292, 4-(4-{[2-(4-chlorophenyl)-4,4-dimethylcyclohex-1-en-1-yl]methyl}piperazin-1-yl)-2-(1H-indol-4-yloxy)-N-[(3-nitro-4-{[2-(trifluoromethoxy)ethyl]amino}phenyl)sulfonyl]benzamide], the results for the inhibition constant (Ki) at GST-Bcl-2 and at GST-Bcl-XL were 0.598 nM and more than 660 nM, respectively. In addition, in the assay on FL5.12/Bcl-2 cells, the EC50 worked out at 69.2 nM.

Turning to `COCCOCCNc1ccc(S(=O)(=O)NC(=O)c2ccc(N3CCN(CC4=C(c5ccc(Cl)cc5)CC(C)(C)CC4)CC3)cc2Oc2cccc3[nH]ccc23)cc1[N+](=O)[O-]` [Example 293, 4-(4-{[2-(4-chlorophenyl)-4,4-dimethylcyclohex-1-en-1-yl]methyl}piperazin-1-yl)-2-(1H-indol-4-yloxy)-N-[(4-{[2-(2-methoxyethoxy)ethyl]amino}-3-nitrophenyl)sulfonyl]benzamide], the Ki at GST-Bcl-2 is 0.516 nM; on GST-Bcl-XL, 260 nM. The EC50 with FL5.12/Bcl-2 cells is 68.1 nM.

Turning to `CC1(C)CCC(CN2CCN(c3ccc(C(=O)NS(=O)(=O)c4ccc(NCCCS(C)(=O)=O)c([N+](=O)[O-])c4)c(Oc4cccc5[nH]ccc45)c3)CC2)=C(c2ccc(Cl)cc2)C1` [Example 294, 4-(4-{[2-(4-chlorophenyl)-4,4-dimethylcyclohex-1-en-1-yl]methyl}piperazin-1-yl)-2-(1H-indol-4-yloxy)-N-[(4-{[3-(methylsulfonyl)propyl]amino}-3-nitrophenyl)sulfonyl]benzamide], the inhibitory constant (Ki) at GST-Bcl-2 is 0.258 nM; on GST-Bcl-XL, 65.1 nM. For the same compound, the EC50 in the assay on FL5.12/Bcl-2 cells is 59.8 nM.
